Assay results reported in patent publication US11186588B2 (AYUMI PHARMACEUTICAL CORPORATION, priority 2017, dated 2021).

Columns and labels:
[1] = biological target: Recombinant BRD4 (44-168) protein (Homo sapiens (Human), UniProt O60885); test: BRD4-H4KAc4 binding assay (amplified luminescence proximity homogeneous assay, AlphaScreen); settings: 10 uM
Method in brief: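 His/FLAG-tagged BRD4 (44-168) and biotinylated tetra-acetylated H4 peptide, each added as 250 nM solutions, incubated with compound 60 min at room temperature in the dark, then AlphaScreen beads 60 min. Emission 520-620 nm at 680 nm excitation, duplicates; % inhibition from blank- and DMSO-corrected signal.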

NF-κB = NF-κB reporter gene assay (TNF-α stimulated A549/NF-κB-luc cells); assay type: cell-based; settings: Homo sapiens, TNF-α stimulation
Method in brief: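 A549 cells stably carrying an NF-κB luciferase reporter were preincubated with compound for 1 h, then stimulated with TNF-α for 3 h. Luminescence was read with Steady-Glo, and inhibition was scaled between blank and DMSO control wells. IC50 was obtained by curve fitting.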

IL-6 production = test: LPS-induced IL-6 production model test; assay type: in vivo, C57BL/6J mice; settings: Mus musculus, 1 h; 10 mg/kg oral, 30 min before LPS 1 mg/kg i.p., serum IL-6 60 min after LPS, mice
Description: In order to evaluate the inhibitory activity of inflammatory cytokine production in the present compounds, LPS-induced IL-6 production model evaluation was carried out. The specific method is described below.
An appropriate amount of each compound was weighed, triturated with an agate mortar, and suspended or dissolved in 1% methyl cellulose solution to prepare 1 mg/mL solution.
C57BL/6J mice (male, Purchaser: Charles River Laboratories Japan, Inc.) were weighted, before divided into normal group, control group and each compound-administered group based on the measured body weight using a random number, wherein each group contained 6 samples. The mice were manually held in hands and forced orally administered the 1% methyl cellulose solution (normal and control group) or each administration solution comprising the compound (each compound-administered group) at a dose of 10 mL/kg into stomach using a feeding needle. After 30 minutes from administration of the 1% methyl cellulose solution or each compound administration solution, the mice were manually held in hands and intraperitoneally administered physiological saline (normal group) or LPS solution (control and each compound-administered group) at a dose of 1 mg/kg. After 60 minutes from administration of the LPS solution, whole blood was collected from the abdominal vena cava of each mouse under isoflurane inhalation anesthesia (available from Mylan Seiyaku Ltd.), and the mice were euthanized. The collected blood was allowed to stand at room temperature for one hour, and then centrifuged at 1,500 G for 10 minutes to collect a serum (supernatant). The collected serum was stored in a deep freezer set at −80° C. until the measurement of IL-6 in the serum. The IL-6 concentration in the serum of each mouse was measured by a commercially available kit (available from R&D systems, Cat No. M6000B), according to the protocol attached thereto.
The IL-6 production inhibition rate (%) was calculated by the following equation using Microsoft EXCEL 2010. IL-6 production inhibition rate (%)=100−{(average value of IL-6 concentration in serum of each compound-administered group)−(average value of IL-6 concentration in serum of normal group))/(average value of IL-6 concentration in serum of control group)−(average value of IL-6 concentration in serum of normal group)}×100

| SMILES | inhibition at 10 µM [1] | IC50 (NF-κB) | inhibition in vivo at 10 mg/kg (IL-6 production) |
| --- | --- | --- | --- |
| COc1ncccc1CN1N=C(c2ccc(Cl)cc2)c2c(sc(C)c2C)-n2c(C)nnc21 [Example 49, 4-(4-chlorophenyl)-6-((2-methoxypyridin-3-yl)methyl)-2,3,9-trimethyl-6H-thieno[2,3-e][1,2,4]triazolo[3,4-c][1,2,4]triazepine] | 100% | 197 nM | 17.9% |
| Cc1nnc2n1-c1sccc1C(c1ccc(Cl)cc1)=NN2Cc1ccccc1 [Example 60, 6-benzyl-4-(4-chlorophenyl)-9-methyl-6H-thieno[2,3-e][1,2,4]triazolo[3,4-c][1,2,4]triaz epine] | 100% | 1690 nM |  |
| Cc1nnc2n1-c1sccc1C(c1ccc(Cl)cc1)=NN2Cc1cccnc1 [Example 61, 4-(4-chlorophenyl)-9-methyl-6-(pyridin-3-ylmethyl)-6H-thieno[2,3-e][1,2,4]triazolo[3,4-c][1,2,4]triazepine] | 100% | 377 nM |  |
| Cc1nnc2n1-c1sccc1C(c1ccc(Cl)cc1)=NN2Cc1ccncc1 [Example 63, 4-(4-chlorophenyl)-9-methyl-6-(pyridin-4-ylmethyl)-6H-thieno[2,3-e][1,2,4]triazolo[3,4-c][1,2,4]triazepine] | 100% | 5240 nM |  |
| COc1cccc(CN2N=C(c3ccc(Cl)cc3)c3ccsc3-n3c(C)nnc32)c1 [Example 64, 4-(4-chlorophenyl)-6-(3-methoxybenzyl)-9-methyl-6H-thieno[2,3-e][1,2,4]triazolo[3,4-c][1,2,4]triazepine] | 100% | 5490 nM |  |
| COc1ccc(CN2N=C(c3ccc(Cl)cc3)c3cc(C)sc3-n3c(C)nnc32)cc1 [Example 65, 4-(4-chlorophenyl)-6-(4-methoxybenzyl)-2,9-dimethyl-6H-thieno[2,3-e][1,2,4]triazolo[3,4-c][1,2,4]triazepine] | 100% | 896 nM |  |
| Cc1sc2c(c1C)C(c1ccc([N+](=O)[O-])cc1)=NN(Cc1cccnc1)c1nnc(C)n1-2 [Example 70, 2,3,9-trimethyl-4-(4-nitrophenyl)-6-(pyridin-3-ylmethyl)-6H-thieno[2,3-e][1,2,4]triazolo[3,4-c][1,2,4]triazepine] | 100% | 1830 nM |  |
| Cc1sc2c(c1C)C(c1cccc(Cl)c1)=NN(Cc1cccnc1)c1nnc(C)n1-2 [Example 73, 4-(3-chlorophenyl)-2,3,9-trimethyl-6-(pyridin-3-ylmethyl)-6H-thieno[2,3-e][1,2,4]triazolo[3,4-c][1,2,4]triazepine] | 100% | 246 nM |  |
| COc1ccccc1C1=NN(Cc2cccnc2)c2nnc(C)n2-c2sc(C)c(C)c21 [Example 74, 4-(2-methoxyphenyl)-2,3,9-trimethyl-6-(pyridin-3-ylmethyl)-6H-thieno[2,3-e][1,2,4]triazolo[3,4-c][1,2,4]triazepine] | 100% | 2140 nM |  |
| COc1cccc(C2=NN(Cc3cccnc3)c3nnc(C)n3-c3sc(C)c(C)c32)c1 [Example 75, 4-(3-methoxyphenyl)-2,3,9-trimethyl-6-(pyridin-3-ylmethyl)-6H-thieno[2,3-e][1,2,4]triazolo[3,4-c][1,2,4]triazepine] | 100% | 1930 nM |  |
| Cc1sc2c(c1C)C(c1ccc(Cl)cc1)=NN(Cc1cccnc1C#N)c1nnc(C)n1-2 [Example 77, 3-((4-(4-chlorophenyl)-2,3,9-trimethyl-6H-thieno[2,3-e][1,2,4]triazolo[3,4-c][1,2,4]triazepin-6-yl)methyl)picolinonitrile] | 100% | 1950 nM |  |
| Cc1sc2c(c1C)C(c1ccc(Cl)cc1)=NN(Cc1cccnc1C(F)(F)F)c1nnc(C)n1-2 [Example 78, 4-(4-chlorophenyl)-2,3,9-trimethyl-6-((2-(trifluoromethyl)pyridin-3-yl)methyl)-6H-thieno[2,3-e][1,2,4]triazolo[3,4-c][1,2,4]triazepine] | 100% | 1260 nM |  |
| Cc1sc2c(c1C)C(c1ccc(Cl)cc1)=NN(Cc1cccnc1Br)c1nnc(C)n1-2 [Example 79, 6-((2-bromopyridin-3-yl)methyl)-4-(4-chlorophenyl)-2,3,9-trimethyl-6H-thieno[2,3-e][1,2,4]triazolo[3,4-c][1,2,4]triazepine] | 100% | 742 nM |  |
| Cc1sc2c(c1C)C(c1ccc(Cl)cc1)=NN(Cc1cccnc1[N+](=O)[O-])c1nnc(C)n1-2 [Example 80, 4-(4-chlorophenyl)-2,3,9-trimethyl-6-((2-nitropyridin-3-yl)methyl)-6H-thieno[2,3-e][1,2,4]triazolo[3,4-c][1,2,4]triazepine] | 100% | 1110 nM |  |
| Cc1sc2c(c1C)C(c1ccc(Cl)cc1)=NN(Cc1cccnc1N)c1nnc(C)n1-2 [Example 81, 3-((4-(4-chlorophenyl)-2,3,9-trimethyl-6H-thieno[2,3-e][1,2,4]triazolo[3,4-c][1,2,4]triazepin-6-yl)methyl)pyridin-2-amine] | 100% | 47.2 nM |  |
| CC(=O)Nc1ncccc1CN1N=C(c2ccc(Cl)cc2)c2c(sc(C)c2C)-n2c(C)nnc21 [Example 82, N-(3-((4-(4-chlorophenyl)-2,3,9-trimethyl-6H-thieno[2,3-e][1,2,4]triazolo[3,4-c][1,2,4]triazepin-6-yl)methyl)pyridin-2-yl)acetamide] | 100% | 135 nM |  |
| COC(=O)c1ncccc1CN1N=C(c2ccc(Cl)cc2)c2c(sc(C)c2C)-n2c(C)nnc21 [Example 83, methyl 3-((4-(4-chlorophenyl)-2,3,9-trimethyl-6H-thieno[2,3-e][1,2,4]triazolo[3,4-c][1,2,4]triazepin-6-yl)methyl)picolinate] | 100% | 2820 nM |  |
| Cc1sc2c(c1C)C(c1ccc(Cl)cc1)=NN(Cc1cccnc1CO)c1nnc(C)n1-2 [Example 86, (3-((4-(4-chlorophenyl)-2,3,9-trimethyl-6H-thieno[2,3-e][1,2,4]triazolo[3,4-c][1,2,4]triazepin-6-yl)methyl)pyridin-2-yl)methanol] | 100% | 95.3 nM |  |
| CCOc1ncccc1CN1N=C(c2ccc(Cl)cc2)c2c(sc(C)c2C)-n2c(C)nnc21 [Example 87, 4-(4-chlorophenyl)-6-((2-ethoxypyridin-3-yl)methyl)-2,3,9-trimethyl-6H-thieno[2,3-e][1,2,4]triazolo[3,4-c][1,2,4]triazepine] | 100% | 1390 nM |  |
| Cc1sc2c(c1C)C(c1ccc(Cl)cc1)=NN(Cc1cc(F)cnc1F)c1nnc(C)n1-2 [Example 88, 4-(4-chlorophenyl)-6-((2,5-difluoropyridin-3-yl)methyl)-2,3,9-trimethyl-6H-thieno[2,3-e][1,2,4]triazolo[3,4-c][1,2,4]triazepine] | 100% | 631 nM |  |
| COc1ncc(F)cc1CN1N=C(c2ccc(Cl)cc2)c2c(sc(C)c2C)-n2c(C)nnc21 [Example 89, 4-(4-chlorophenyl)-6-((5-fluoro-2-methoxypyridin-3-yl)methyl)-2,3,9-trimethyl-6H-thieno[2,3-e][1,2,4]triazolo[3,4-c][1,2,4]triazepine] | 100% | 556 nM |  |
| Cc1sc2c(c1C)C(c1ccccc1)=NN(Cc1cccnc1F)c1nnc(C)n1-2 [Example 90, 6-((2-fluoropyridin-3-yl)methyl)-2,3,9-trimethyl-4-phenyl-6H-thieno[2,3-e][1,2,4]triazolo[3,4-c][1,2,4]triazepine] | 100% | 298 nM |  |
| Cc1sc2c(c1C)C(c1ccc(N)cc1)=NN(Cc1cccnc1)c1nnc(C)n1-2 [Example 92, 4-(2,3,9-trimethyl-6-(pyridin-3-ylmethyl)-6H-thieno[2,3-e][1,2,4]triazolo[3,4-c][1,2,4]triazepin-4-yl)aniline] |  | 34.2 nM | 71% |
| CC(=O)Nc1ccc(C2=NNc3nnc(C)n3-c3sc(C)c(C)c32)cc1 [Example 94, N-(4-(2,3,9-trimethyl-6H-thieno[2,3-e][1,2,4]triazolo[3,4-c][1,2,4]triazepin-4-yl)phenyl)acetamide] |  | 96 nM | 45.7% |
